Reference: patent US20130344026A1, “Dimeric Smac Mimetics” (priority 2009, published 2013)
Read-outs that look alike come from different tables or passages of the source.

Tested on: HCC461
Test: cell viability assay in HCC461, compound alone
Format: cell-based
[1] = HCC461, HCC461 cells, compound alone, read-out: IC50 (uM) in cell viability assay in HCC461
[2] = HCC461, HCC461, Tables 15-18, read-out: IC50 (uM) in cell viability assay in HCC461

| Structure (SMILES) | IC50 [1] [µM] | IC50 [2] [µM] | other results |
| --- | --- | --- | --- |
| CN[C@@H](C)C(=O)N[C@H](C(=O)N1CCC[C@H]1C(=O)N[C@H](CNC(=O)C1CCCCC1C(=O)NC[C@@H](NC(=O)[C@@H]1CCCN1C(=O)[C@@H](NC(=O)[C@H](C)NC)C(C)(C)C)C1CCCCC1)C1CCCCC1)C(C)(C)C (single isomer, unassigned) [Compound P4-2] | – | – | IC50 (HCC461, Tables 15-18, read-out: IC50 (uM) in cell viability assay in HCC461): 0.12 µM |
| CN[C@@H](C)C(=O)N[C@@H](Cc1ccc(O[C@H]2C[C@@H](C(=O)N[C@@H]3CCCc4ccccc43)N(C(=O)[C@@H](NC(=O)[C@H](C)NC)C(C)(C)C)C2)cc1)C(=O)N1CCCC1 [Compound H-3] | – | 0.088 | – |
| CN[C@@H](C)C(=O)N[C@H](C(=O)N1C[C@@H](NC(=O)c2cccc(C(=O)N[C@H]3C[C@@H](C(=O)NC4CCCC5CCCCC54)N(C(=O)[C@@H](NC(=O)[C@H](C)NC)C(C)(C)C)C3)c2)C[C@H]1C(=O)NC1CCCC2CCCCC21)C(C)(C)C (stereo partly shown) [Compound P3-57] | – | – | IC50 (HCC461 cells, compound alone, read-out: IC50 (uM) in cell viability assay in HCC461): 1.69 µM |
| CN[C@@H](C)C(=O)N[C@H](C(=O)N1C[C@@H](Oc2cccc(O[C@H]3C[C@@H](C(=O)NC4CCCc5ccccc54)N(C(=O)[C@@H](NC(=O)[C@H](C)NC)C(C)(C)C)C3)c2)C[C@H]1C(=O)NC1CCCc2ccccc21)C(C)(C)C (stereo partly shown) [Compound P3-25] | 0.007 | – | – |
| CCC[C@H](NC)C(=O)N[C@H](C(=O)N1CC[C@H](NC(=O)c2cccc(C(=O)N[C@H]3C[C@@H](C(=O)N[C@@H]4CCCc5ccccc54)N(C(=O)[C@@H](NC(C)[C@H](C)NC)C(C)C)C3)c2)C1)C(C)(C)C (stereo partly shown) [Compound H-4] | – | 1.69 | – |
| CN[C@@H](C)C(=O)N[C@H](C(=O)N1C[C@@H](NC(=O)c2cccc(C(=O)NCCCC[C@H](NC(=O)[C@@H](NC(=O)[C@H](CO)NC)C(C)(C)C)C(=O)N[C@@H](C)C(C)C)c2)CC1C(=O)N[C@@H]1CCc2ccccc2C1)C(C)(C)C (stereo partly shown) [Compound 165] | – | – | IC50 (HCC461, Tables 6-9, read-out: IC50 (μM) in cell viability assay in HCC461): > 30 µM |
| CN[C@@H](C)C(=O)N[C@H](C(=O)N1C[C@@H](NC(=O)CC(C)(C)CC(=O)N[C@H]2C[C@@H](C(=O)N[C@@H]3CCCc4ccccc43)N(C(=O)[C@@H](NC(=O)[C@H](C)NC)C(C)(C)C)C2)C[C@H]1C(=O)N[C@@H]1CCCc2ccccc21)C(C)(C)C [Compound P3-33] | 0.017 | – | – |
| CN[C@@H](C)C(=O)N[C@H](C(=O)N1CCC[C@H]1C(=O)N[C@H](CNC(=O)c1ccc(C(=O)NC[C@@H](NC(=O)[C@@H]2CCCN2C(=O)[C@@H](NC(=O)[C@H](C)NC)C(C)(C)C)C2CCCCC2)cc1)C1CCCCC1)C(C)(C)C [Compound P4-8] | – | 0.2 | – |
| CN[C@@H](C)C(=O)N[C@H](C(=O)N1CCC[C@H]1C(=O)N[C@H](CNC(=O)C1CCC(C(=O)NC[C@@H](NC(=O)[C@@H]2CCCN2C(=O)[C@@H](NC(=O)[C@H](C)NC)C(C)(C)C)C2CCCCC2)CC1)C1CCCCC1)C(C)(C)C (stereo partly shown) [Compound P4-6] | – | 0.07 | – |

Now from value to compound, other results behind:

| IC50 [1] [µM] | Structure (SMILES) | IC50 [2] [µM] | other results |
| --- | --- | --- | --- |
| 0.091 | CN[C@@H](C)C(=O)N[C@H](C(=O)N1C[C@@H](NC(=O)c2cc(N)cc(C(=O)N[C@H]3C[C@@H](C(=O)N[C@@H]4CCCc5ccccc54)N(C(=O)[C@@H](NC(=O)[C@H](C)NC)C(C)C)C3)c2)C[C@H]1C(=O)N[C@@H]1CCCc2ccccc21)C(C)C [Compound P3-56] | – | – |
| 0.196 | CN[C@@H](C)C(=O)N[C@H](C(=O)N1C[C@@H](NC(=O)c2cccc(C(=O)N[C@H]3C[C@@H](C(=O)N[C@H](C)C(C)C)N(C(=O)[C@@H](NC(=O)[C@H](C)NC)C(C)(C)C)C3)c2)C[C@H]1C(=O)N[C@H](C)C(C)C)C(C)(C)C [Compound P3-83] | – | – |
| 0.08 | CN[C@@H](C)C(=O)N[C@H](C(=O)N1C[C@@H](NC(=O)[C@@H]2[C@@H]3CC[C@@H](C3)[C@@H]2C(=O)N[C@H]2C[C@@H](C(=O)N[C@@H]3CCCc4ccccc43)N(C(=O)[C@@H](NC(=O)[C@H](C)NC)C(C)(C)C)C2)C[C@H]1C(=O)N[C@@H]1CCCc2ccccc21)C(C)(C)C [Compound P3-34] | – | – |
| 0.014 | CN[C@@H](C)C(=O)N[C@H](C(=O)N1C[C@@H](NC(=O)c2cccc(C(=O)N[C@H]3C[C@@H](C(=O)N[C@H](C)c4ccccc4)N(C(=O)[C@@H](NC(=O)[C@H](C)NC)C4CCCCC4)C3)c2)C[C@H]1C(=O)N[C@H](C)c1ccccc1)C1CCCCC1 [Compound P3-77] | – | – |
